{"source": "paper PMC9492777", "about": "“Reaction-based fluorogenic probes for detecting protein cysteine oxidation in living cells” (Nature Communications, 2022)", "target": "EGFR (epidermal growth factor receptor) (Homo sapiens, UniProt P00533)", "sequence (P00533 25-1210)": "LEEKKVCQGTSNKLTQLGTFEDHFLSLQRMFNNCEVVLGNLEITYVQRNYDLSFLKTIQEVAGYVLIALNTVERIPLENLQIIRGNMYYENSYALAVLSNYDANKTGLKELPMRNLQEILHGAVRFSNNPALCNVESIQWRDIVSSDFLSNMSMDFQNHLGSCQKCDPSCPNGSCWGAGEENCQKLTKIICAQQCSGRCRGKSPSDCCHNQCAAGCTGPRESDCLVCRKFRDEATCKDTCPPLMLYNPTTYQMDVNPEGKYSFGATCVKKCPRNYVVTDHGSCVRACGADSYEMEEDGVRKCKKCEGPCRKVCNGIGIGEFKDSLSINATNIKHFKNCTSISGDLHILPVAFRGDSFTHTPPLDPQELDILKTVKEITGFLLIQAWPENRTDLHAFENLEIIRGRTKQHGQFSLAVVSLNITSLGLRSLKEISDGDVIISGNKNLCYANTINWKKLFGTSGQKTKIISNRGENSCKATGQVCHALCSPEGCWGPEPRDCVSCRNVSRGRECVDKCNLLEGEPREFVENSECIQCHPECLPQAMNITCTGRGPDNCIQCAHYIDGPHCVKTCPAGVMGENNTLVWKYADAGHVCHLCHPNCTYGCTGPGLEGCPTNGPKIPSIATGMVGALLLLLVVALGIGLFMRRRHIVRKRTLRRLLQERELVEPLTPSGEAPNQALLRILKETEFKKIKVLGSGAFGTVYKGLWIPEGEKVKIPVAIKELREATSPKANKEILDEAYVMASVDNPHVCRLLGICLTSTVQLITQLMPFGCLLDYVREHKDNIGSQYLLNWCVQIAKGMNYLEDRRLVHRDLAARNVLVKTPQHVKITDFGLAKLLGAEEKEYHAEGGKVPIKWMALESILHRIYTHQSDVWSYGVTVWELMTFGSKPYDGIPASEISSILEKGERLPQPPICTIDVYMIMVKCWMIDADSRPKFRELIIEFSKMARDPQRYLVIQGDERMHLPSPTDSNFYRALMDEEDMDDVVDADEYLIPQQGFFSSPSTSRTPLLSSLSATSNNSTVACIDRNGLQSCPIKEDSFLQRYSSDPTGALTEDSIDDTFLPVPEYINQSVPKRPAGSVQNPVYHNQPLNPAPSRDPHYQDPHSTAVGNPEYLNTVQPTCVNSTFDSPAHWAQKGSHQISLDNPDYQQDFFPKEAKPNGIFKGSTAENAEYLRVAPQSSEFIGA", "experiment": "labelling in transfected HeLa cells, immunoprecipitation, in-gel fluorescence", "format": "cell-based", "details": "covalent, at Cys797 sulfenic acid; 50 uM probe, 500 uM H2O2, 1 h, 37 °C", "data": [{"molecule": "O=C1CS(=O)(=O)c2cc(F)c(N3CCC3)c3cccc1c23", "note": "[compound 8, CysOx2]", "values": [{"measurement": "labelling in transfected HeLa cells, immunoprecipitation, in-gel fluorescence", "result": "Wild-type EGFR exhibited detectable fluorescence signal from CysOx1 or CysOx2"}]}, {"molecule": "Nc1c(F)cc2c3c(cccc13)C(=O)CS2(=O)=O", "note": "[compound 7, CysOx1]", "values": [{"measurement": "labelling in transfected HeLa cells, immunoprecipitation, in-gel fluorescence", "result": "Wild-type EGFR exhibited detectable fluorescence signal from CysOx1 or CysOx2"}]}]}
